Measured values taken from patent US20110009332A1, “Therapeutic Treatment Of Wounds” (SOUTHWEST RESEARCH INSTITUTE, priority 2009, published 2011).
Where a SMILES comes first, the peptide text is derived from it. The star is where a group is joined. Cbz = O=C(OCc1ccccc1)*; OtBu = CC(C)(C)O*

Tested on: BMP-1
Assay: BMP-1 gene expression (qPCR, normalized over 18S) in human dermal fibroblasts
Assay type: cell-based
Experimental: An examination of gene expression of BMP-1 was conducted using a number of proteasome inhibitors including, proteasome inhibitor-1, curcumin, MG-132 and bortezomib. Human neonatal dermal fibroblasts (AllCells, Catalog No. HN006001) were maintained in Dulbecco's modified Eagle's medium (DMEM) supplemented with 10% fetal bovine serum. Early passage cells were plated at 2×10^4 cells/cm^2 and grown in humidified 5% CO2 at 37° C. for 24 hours. Spent media was replaced the following day with assay media including Proteasome inhibitor-1 was added in DMEM at 1 μM and 0.1 μM. Untreated cells were used as the control group. For the human osteogenesis PCR array, the experimental group was treated only at 1 μM. In addition, in separate trials, spent media was replace by assay media of curcumin added in DMEM at 10 μM and 100 μM, MG-132 in DMEM at 0.1 μM and 1 μM, and bortezomib in DMEM at 0.1 μm and 1 μM.
Phenol-chloroform extraction was performed to isolate the total RNA for real time polymerase chain reaction array. More specifically, the total RNA was prepared using TRI REAGENT (Ambion, product number 9738), wherein the total RNA was obtained from the human neonatal dermal fibroblasts. Note that isolation was performed as per the instructions provided with the TRI REAGENT. The RNA was used for subsequent quantitative polymerase chain reaction (qPRC) gene expression of BMP1 measured using hydrolysis probes (TAQMAN probes available from Applied Biosystems) as described further below.
Concentration and integrity of the obtained total RNA was assessed by absorbance in a spectrophotometer at 260 nm and 280 nm and by electrophoresis in 1% agarose with formaldehyde loading dye. For TAQMAN gene expression assays, cDNA was synthesized from 2 μg of total RNA using the High Capacity cDNA Reverse Transcription Kit (Applied Biosystems, product number 4368814), again following the protocol supplied with the kit. The resulting cDNA was diluted 1:10.
For TAQMAN gene expression, gene-specific fluorescent labeled TAQMAN primers for FAM-BMP1 (Applied Biosystems, product Hs0098677.g1) and TAQMAN reference VIC-18S ribosomal RNA (Applied Biosystems, product number 4310893E) were used to target the gene of interest. A cocktail of universal master mix (Applied Biosystems, product number 4369016) was prepared individually for both set of primers which contained Taq Polymerase, dNTPs, and buffer. Template cDNA's were added separately to respective individual wells in triplicate samples. PCR was performed on StepOne Plus Real Time System instrument (Applied Biosystems). The amplification program consisted of 1 cycle of 95° C. with 10 minute hold (hot start) followed by 50 cycles of 95° C. with 15 second annealing hold and 1 minute 60° C. specified acquisition hold.
For human osteogenisis PCR array, total RNA was prepared using silica matrix purification using RNEASY MINI KIT (Qiagen, product number 74101) according to the manufacturer's recommendations. cDNA was synthesized from 1 μg of purified DNA-free RNA accordingly to RT^2First Strand Kit (SABiosciences, C-03). The resulting cDNA was diluted 1:30 and amplified. The procedure for the PCR array using real-time PCR is based on the RT^2 Profiler PCR array system instructions for Human Osteogenesis (SABiosciences, product number PAHS-026C). A cocktail reaction mix was setup as recommended by the PCR manufacturer (SABiosceiences, product number PA-012). PCR was performed using the same temperature parameters as used with the StepOne Plus Real Time System instrument. The Ct value of endogenous reference gene (i.e. 18s) was used to control for input RNA and then used to normalize target gene (i.e. BMP-1) tested from the same cDNA sample (Δ Ct), and then calibrated to an internal reference sample (ΔΔCt). Change in gene expression was determined by the expression 2̂-(ΔΔCt). […]

[1] = 0.1 μM inhibitor, FIG. 27, nontreated approximately 1.52 (MG132) / 1.50 (bortezomib), may not be statistically significant
[2] = 1 μM inhibitor, FIG. 27, nontreated approximately 1.52 (MG132) / 1.50 (bortezomib), may not be statistically significant

SMILES: CC(C)C[C@@H](C=O)NC(=O)[C@H](CC(C)C)NC(=O)[C@H](CC(C)C)NC(=O)OCc1ccccc1 [MG132] (Cbz-Leu-Leu-Leu-aldehyde)
- BMP-1/18S mRNA levels [1]: 1.10 a.u.
- BMP-1/18S mRNA levels [2]: 1.09 a.u.

SMILES: CC[C@H](C)[C@H](NC(=O)OCc1ccccc1)C(=O)N[C@@H](CCC(=O)OC(C)(C)C)C(=O)N[C@@H](C)C(=O)N[C@H](C=O)CC(C)C [PS-1, Z-Ile-Glu(OBu^t)-Ala-Leu-H] (Cbz-IE(OtBu)AL-aldehyde)
- BMP-1/18S mRNA levels (0.1 μM PS-1, FIG. 25, nontreated approximately 1.26): 0.436 a.u.
- BMP-1/18S mRNA levels (1.0 μM PS-1, FIG. 25, nontreated approximately 1.26): 0.480 a.u.

SMILES: CC(C)C[C@H](NC(=O)[C@H](Cc1ccccc1)NC(=O)c1cnccn1)B(O)O [bortezomib]
- BMP-1/18S mRNA levels [1]: 1.27 a.u.
- BMP-1/18S mRNA levels [2]: 1.27 a.u.

SMILES: COc1cc(/C=C/C(=O)CC(=O)/C=C/c2ccc(O)c(OC)c2)ccc1O [curcumin]
- BMP-1/18S mRNA levels (10 μM curcumin, FIG. 26, nontreated approximately 1.26): 1.68 a.u.
- BMP-1/18S mRNA levels (100 μM curcumin, FIG. 26, nontreated approximately 1.26): 0.882 a.u.
